Data: PMC9586938, “Picomolar fluorescent probes for compound affinity determination to carbonic anhydrase IX expressed in live cancer cells” (Scientific Reports, 2022)
“And” between values parts separate entries of the source, which are not always exact repeats. Equal entries are not always repeated. Where two headings read alike, the source gives them in different places.

Key:
CAI = molecular target: T1, CAI (Homo sapiens, UniProt P00915); test: Thermal shift assay (TSA), recombinant CAI; format: binding; settings: 37 °C, pH 7.0, observed (not intrinsic)
T1 construct: made in house; host or cells: E. coli

CAII = molecular target: T2, CAII (Homo sapiens, UniProt P00918); test: Thermal shift assay (TSA), recombinant CAII; format: binding; settings: 37 °C, pH 7.0, observed (not intrinsic)
T2 construct: made in house; host or cells: E. coli
Protocol: (§1) The binding affinities of all fluorescein-containing compounds were determined for all 12 catalytically active CA isozymes by the thermal shift assay (TSA). […] However, the SFA technique cannot determine the affinities lower than the enzyme concentration used in the assay. […] In addition, we used isothermal titration calorimetry (ITC), the standard assay to determine affinity and enthalpy of protein–ligand binding. […] Therefore, ITC was used only to determine the enthalpy of interaction and confirm the ordering of compound affinities.
(§2) All twelve catalytically active human CA isozymes were prepared recombinantly as previously described. Isozymes CAIX, CAXII, and CAXIV were the catalytic domains of the proteins[14],[38]. All isozymes were expressed in E. coli except CAIX that has been prepared in mammalian cells. The proteins were chromatographically purified on ion-exchange or benzene sulfonamide containing affinity columns. Protein MW was confirmed by mass spectrometry with 1 Da precision as predicted from gene sequence.
(§3) Compound affinities for the twelve catalytically active CA isozymes were determined by the thermal shift assay as previously described[30],[39]. Protein solutions containing 1,8-anilinonaphthalenesulfonate fluorescent probe were heated from 25 to 100 °C at a rate of one degree per minute while following the fluorescence of the probe. The temperature scanning curves provided the melting temperature Tm of the protein. The Tm has a distinct dependence on the concentration of a compound. Stronger binders shift the Tm to a greater extent than the weak binders. The Tm dependencies on compound concentration were fit to obtain the affinity Kd[40].

CAIII = molecular target: T3, CAIII (Homo sapiens, UniProt P07451); test: Thermal shift assay (TSA), recombinant CAIII; format: binding; settings: 37 °C, pH 7.0, observed (not intrinsic)
T3 construct: made in house; host or cells: E. coli
Protocol: as §1, §2, §3

CAIV = molecular target: T4, CAIV (Homo sapiens, UniProt P22748); test: Thermal shift assay (TSA), recombinant CAIV; format: binding; settings: 37 °C, pH 7.0, observed (not intrinsic)
T4 construct: made in house; host or cells: E. coli

CAVA = molecular target: T5, CAVA (Homo sapiens, UniProt P35218); test: Thermal shift assay (TSA), recombinant CAVA; format: binding; settings: 37 °C, pH 7.0, observed (not intrinsic)
T5 construct: made in house; host or cells: E. coli
Protocol: as §1, §2, §3

CAVB = molecular target: T6, CAVB (Homo sapiens, UniProt Q9Y2D0); test: Thermal shift assay (TSA), recombinant CAVB; format: binding; settings: 37 °C, pH 7.0, observed (not intrinsic)
T6 construct: made in house; host or cells: E. coli

CAVI = molecular target: T7, CAVI (Homo sapiens, UniProt P23280); test: Thermal shift assay (TSA), recombinant CAVI; format: binding; settings: 37 °C, pH 7.0, observed (not intrinsic)
T7 construct: made in house; host or cells: E. coli
Protocol: as §1, §2, §3

CAVII = molecular target: T8, CAVII (Homo sapiens, UniProt P43166); test: Thermal shift assay (TSA), recombinant CAVII; format: binding; settings: 37 °C, pH 7.0, observed (not intrinsic)
T8 construct: made in house; host or cells: E. coli

[1] = molecular target: T9, catalytic domain of recombinant human CAIX (Homo sapiens, UniProt Q16790); test: Thermal shift assay (TSA), recombinant CAIX catalytic domain; format: binding
T9 construct: Isozymes CAIX, CAXII, and CAXIV were the catalytic domains of the proteins; made in house; host or cells: mammalian cells

CAXII = molecular target: T10, CAXII (Homo sapiens, UniProt O43570); test: Thermal shift assay (TSA), recombinant CAXII; format: binding; settings: 37 °C, pH 7.0, observed (not intrinsic)
T10 construct: Isozymes CAIX, CAXII, and CAXIV were the catalytic domains of the proteins; made in house; host or cells: E. coli
Protocol: as §1, §2, §3

CAXIII = molecular target: T11, CAXIII (Homo sapiens, UniProt Q8N1Q1); test: Thermal shift assay (TSA), recombinant CAXIII; format: binding; settings: 37 °C, pH 7.0, observed (not intrinsic)
T11 construct: made in house; host or cells: E. coli

CAXIV = molecular target: T12, CAXIV (Homo sapiens, UniProt Q9ULX7); test: Thermal shift assay (TSA), recombinant CAXIV; format: binding; settings: 37 °C, pH 7.0, observed (not intrinsic)
T12 construct: Isozymes CAIX, CAXII, and CAXIV were the catalytic domains of the proteins; made in house; host or cells: E. coli

[2] = tested on: CA activity in hypoxic HeLa WT cells; test: CA activity by gas-analysis mass spectrometry in live hypoxic HeLa WT cells; format: cell-based, human; settings: Fig. 7A
Protocol: (§4) Catalytic activity of CA in hypoxic human cervical adenocarcinoma (HeLa) cells was determined by monitoring the ^18O depletion of doubly labeled ^13C^18O2 through several hydration and dehydration steps with a quadrupole mass spectrometer (OmniStar GSD 320; Pfeiffer Vacuum, Asslar, Germany) as previously described[16],[51]. HeLa cells were cultured in Dulbecco’s Modified Eagle’s Medium–high glucose (D5671; Sigma Aldrich, Schnelldorf, Germany), supplemented with 10% fetal calf serum and 1% penicillin / streptomycin. The cell line was cultured under hypoxia (1% O2) for three days prior to measurements. Cells were detached from the plate with Accumax Cell Detachment Solution (ACM-1F; Capricorn Scientific, Ebsdorfergrund, Germany), washed and resuspended in HEPES-buffered saline (143 mM NaCl, 5 mM KCl, 2 mM CaCl2, 1 mM MgSO4, 1 mM Na2HPO4, 10 mM HEPES, pH 7.2). Approximately 3 × 10^6 cells, dissolved in 5 mL of HEPES-buffered saline (pH 7.2, RT), were used for every single measurement. […] For every measurement, the non-catalyzed reaction was determined for 12 min in the presence of inhibitor, before cell suspension was added to the measuring cuvette and the catalyzed reaction was determined for 12 min. […] IC50 values were determined by Hill1 fit using OriginPro 8.6 (OriginLab Corporation). CA enzymatic activity in units (U) was calculated as defined by Badger and Price[52]. […]

[3] = tested on: CA activity in hypoxic HeLa CAIX-KO cells; test: CA activity by gas-analysis mass spectrometry in live hypoxic HeLa CAIX-KO cells; format: cell-based, human
Protocol: as §4

hypoxic HeLa cells = test: XTT cell viability assay; format: cell-based, human; settings: up to 1 µM, 3 h
Protocol: Potential cytotoxic effects on HeLa cells were determined by XTT assay. The XTT was carried out as previously described by Scudiero et al.[53]. HeLa cells were cultured under hypoxia (1% O2) for three days prior to measurements. Cells were detached from the plate with Accumax Cell Detachment Solution (ACM-1F; Capricorn Scientific, Ebsdorfergrund, Germany), washed and resuspended in HEPES-buffered saline (143 mM NaCl, 5 mM KCl, 2 mM CaCl2, 1 mM MgSO4, 1 mM Na2HPO4, 10 mM HEPES, pH 7.2). For each measurement, 100,000 cells were incubated with 1 nM or 1 µM of GZ18-23 for 3 h prior to adding the XTT (No. 38450, SERVA Electrophoresis GmbH, Heidelberg, Germany) / electron coupling reagent (PMS; No. 32030, SERVA). XTT-specific absorbance was measured at 492 nm using a microplate reader (Tecan Infinite F200; Tecan Trading AG, Männedorf, Switzerland). Background absorption was measured at 690 nm. Cells, which were not incubated in GZ18-23, were used as control (100%).

[4] = molecular target: T13, CAIX expressed on live HeLa cells (Homo sapiens, UniProt Q16790); test: Competition of unlabeled compound with 10 nM GZ19-32 on hypoxic HeLa cells (competitive binding model); format: cell-based
T13 construct: recombinant CAIX and endogenous CAIX expressed on the cell surface; endogenous in cells; host or cells: HeLa (WT), grown under hypoxia (1% O2)

[5] = molecular target: CAIX expressed on live A549 cells (Homo sapiens, UniProt Q16790); test: Competition of unlabeled compound with 10 nM GZ19-32 on hypoxic A549 cells (competitive binding model)

T10 sequence (O43570 30-289 limits assumed): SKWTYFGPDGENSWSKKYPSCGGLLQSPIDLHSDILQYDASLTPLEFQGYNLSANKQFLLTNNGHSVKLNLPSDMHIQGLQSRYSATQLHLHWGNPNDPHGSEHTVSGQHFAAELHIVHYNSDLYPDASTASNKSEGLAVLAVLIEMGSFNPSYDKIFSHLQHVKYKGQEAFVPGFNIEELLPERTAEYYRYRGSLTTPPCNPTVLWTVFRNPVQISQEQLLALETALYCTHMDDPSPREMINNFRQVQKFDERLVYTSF
T3 sequence (P07451 whole entry): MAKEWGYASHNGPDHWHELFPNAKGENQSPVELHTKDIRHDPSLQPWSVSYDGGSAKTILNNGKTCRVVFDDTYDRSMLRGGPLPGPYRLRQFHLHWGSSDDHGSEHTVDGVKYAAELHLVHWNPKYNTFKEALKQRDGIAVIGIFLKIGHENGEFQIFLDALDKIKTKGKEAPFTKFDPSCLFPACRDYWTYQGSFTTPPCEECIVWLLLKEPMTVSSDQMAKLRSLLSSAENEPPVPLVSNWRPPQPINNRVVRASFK
T6 sequence (Q9Y2D0 34-317): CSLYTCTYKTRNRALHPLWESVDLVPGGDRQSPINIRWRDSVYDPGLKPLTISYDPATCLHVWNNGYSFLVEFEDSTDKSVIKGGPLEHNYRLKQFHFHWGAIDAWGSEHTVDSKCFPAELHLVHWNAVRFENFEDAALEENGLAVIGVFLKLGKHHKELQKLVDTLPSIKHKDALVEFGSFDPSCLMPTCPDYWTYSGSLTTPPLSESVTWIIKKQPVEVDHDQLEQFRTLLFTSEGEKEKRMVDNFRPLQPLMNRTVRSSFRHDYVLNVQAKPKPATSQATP
T4 sequence (P22748 19-312): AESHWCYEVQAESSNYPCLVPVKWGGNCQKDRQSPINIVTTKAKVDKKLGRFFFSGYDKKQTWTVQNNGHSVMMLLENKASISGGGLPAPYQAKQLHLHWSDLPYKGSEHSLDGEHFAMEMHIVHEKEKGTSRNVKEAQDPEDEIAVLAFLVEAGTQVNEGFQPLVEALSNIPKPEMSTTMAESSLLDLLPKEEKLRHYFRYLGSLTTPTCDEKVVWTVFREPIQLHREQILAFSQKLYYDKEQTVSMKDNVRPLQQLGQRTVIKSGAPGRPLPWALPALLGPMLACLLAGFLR
T7 sequence (P23280 18-308): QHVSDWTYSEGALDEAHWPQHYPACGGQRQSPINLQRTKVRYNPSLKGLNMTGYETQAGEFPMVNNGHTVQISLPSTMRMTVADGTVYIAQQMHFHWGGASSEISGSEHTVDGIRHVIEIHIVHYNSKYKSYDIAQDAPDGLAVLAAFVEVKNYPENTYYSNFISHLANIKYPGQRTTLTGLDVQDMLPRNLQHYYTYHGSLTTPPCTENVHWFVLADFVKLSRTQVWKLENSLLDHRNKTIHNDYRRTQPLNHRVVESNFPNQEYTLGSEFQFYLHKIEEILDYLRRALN
T1 sequence (P00915 whole entry): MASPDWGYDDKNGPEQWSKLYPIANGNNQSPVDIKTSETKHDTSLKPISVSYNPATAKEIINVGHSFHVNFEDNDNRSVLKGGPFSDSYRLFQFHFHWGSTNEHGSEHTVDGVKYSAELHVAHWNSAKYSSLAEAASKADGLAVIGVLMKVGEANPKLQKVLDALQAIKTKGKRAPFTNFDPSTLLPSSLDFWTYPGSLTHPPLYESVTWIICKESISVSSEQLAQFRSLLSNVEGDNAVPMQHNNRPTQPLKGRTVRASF
T12 sequence (Q9ULX7 20-278 limits assumed): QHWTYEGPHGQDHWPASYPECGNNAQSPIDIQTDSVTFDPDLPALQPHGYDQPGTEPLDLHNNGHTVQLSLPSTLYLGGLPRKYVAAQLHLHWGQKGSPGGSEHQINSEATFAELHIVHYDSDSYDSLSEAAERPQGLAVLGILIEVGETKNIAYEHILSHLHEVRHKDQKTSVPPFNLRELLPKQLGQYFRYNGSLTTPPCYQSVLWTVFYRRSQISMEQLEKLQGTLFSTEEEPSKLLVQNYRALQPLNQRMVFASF
T8 sequence (P43166 whole entry): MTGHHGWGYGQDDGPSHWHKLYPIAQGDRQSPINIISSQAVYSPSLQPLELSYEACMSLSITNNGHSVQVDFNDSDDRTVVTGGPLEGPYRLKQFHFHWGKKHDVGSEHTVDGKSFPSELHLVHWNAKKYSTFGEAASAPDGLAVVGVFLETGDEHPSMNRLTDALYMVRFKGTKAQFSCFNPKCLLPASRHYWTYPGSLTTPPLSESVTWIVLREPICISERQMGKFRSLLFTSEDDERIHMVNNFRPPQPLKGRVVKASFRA
T11 sequence (Q8N1Q1 whole entry): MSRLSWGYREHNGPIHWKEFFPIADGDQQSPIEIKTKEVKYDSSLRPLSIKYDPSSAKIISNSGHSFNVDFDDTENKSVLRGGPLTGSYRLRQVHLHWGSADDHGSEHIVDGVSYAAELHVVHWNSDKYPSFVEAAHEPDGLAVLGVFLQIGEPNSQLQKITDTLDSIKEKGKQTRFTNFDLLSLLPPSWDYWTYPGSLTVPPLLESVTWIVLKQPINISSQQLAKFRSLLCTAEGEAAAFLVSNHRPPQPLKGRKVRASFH
T5 sequence (P35218 39-305): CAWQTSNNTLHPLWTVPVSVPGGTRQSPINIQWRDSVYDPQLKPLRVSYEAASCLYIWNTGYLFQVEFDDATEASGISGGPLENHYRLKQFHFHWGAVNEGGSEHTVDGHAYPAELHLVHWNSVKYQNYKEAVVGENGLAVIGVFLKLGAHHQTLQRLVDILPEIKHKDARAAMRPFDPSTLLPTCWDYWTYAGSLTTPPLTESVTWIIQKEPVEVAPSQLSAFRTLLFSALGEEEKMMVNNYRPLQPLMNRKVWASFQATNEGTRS

For NS(=O)(=O)c1c(F)c(F)c(S(=O)(=O)CCC(=O)O)c(NC2CCCCCCC2)c1F [GZ18-23, 3-((2-(cyclooctylamino)-3,5,6-trifluoro-4-sulfamoylphenyl)sulfonyl)propanoic acid], the Kd (CAI) was 5000 nM, the Kd (CAII) was 160 nM and the Kd (CAIII) was > 200000 nM. For the same compound, the Kd (CAIV) was 120 nM, the Kd (CAVA) was 12500 nM and the Kd (CAVB) was 160 nM. For the same compound, the Kd (CAVI) was 140 nM, the Kd (CAVII) was 43 nM and the Kd ([1]; TSA, 37 °C, pH 7.0, observed (not intrinsic), read-out: Kd CAIX) was 0.033 nM. The “selectivity for CAIX over CAVII” value ([1]; ratio of Kd) was 1000 ×, the “selectivity for CAIX over CAXII” value ([1]; ratio of Kd) was 30 fold and the “selectivity for CAIX over CAXIII” value ([1]; ratio of Kd) was 300 ×. The “selectivity for CAIX over CAXIV” value ([1]; ratio of Kd) was 100 fold, the “selectivity for CAIX over the remaining CA isozymes” value ([1]; ratio of Kd) was “more than 3000 ×” and the Kd ([1]; recombinant CAIX, read-out: Kd for CAIX) was 0.03 nM. For the same compound, the Kd ([1]; recombinantly purified CAIX, read-out: Kd for purified CAIX by TSA) was 0.033 nM, the Kd (CAXII) was 1 nM and 1.4 nM and the Kd (CAXIII) was 10 nM. The Kd (CAXIV) was 3.3 nM, the IC50 ([2]; Homo sapiens, hypoxic HeLa cells, gas-analysis MS, read-out: k, inhibition of CA activity (Hill fit)) was 0.92 nM and the “overall CA activity remaining uninhibited” value ([2]; hypoxic HeLa WT cells) was “approximately 20%”. The “effect on CA activity” value [3] was “no effect”, the “viability of hypoxic HeLa cells” value (hypoxic HeLa cells) was “did not affect the viability” and the “dosing midpoint of competition curve” value ([4]; 10 nM GZ19-32, Fig. 12) was “around 10 nM”. For the same compound, the Kd ([4]; HeLa cells grown under hypoxia, mixture with 10 nM GZ19-32, 20 min incubation, read-out: KdA, nM (competitive binding model)) was 0.3 nM, the “difference between affinity for CAIX on cells and purified CAIX” value ([4]; lower affinity on cells) was 3 to 10 factor and the melting point was 143 to 144 °C. It also gave a Kd [5] of 0.22 nM.
